US5738858A, “Skin care compositions containing fatty hydroxyethyl imidazoline surfactants and retinol or retinyl ester” (priority 1996, dated 1998)

Experiments:
[1] = test system: keratinocyte proliferation; test: 3H-Thymidine incorporation / keratinocyte proliferation (Example 1A); format: cell-based, human; conditions: […]10^-7 to […]10^-9 M; vs ethanol control and retinol treatments
[2] = test system: keratinocyte differentiation (TGase 1); test: Transglutaminase (TGase 1) ELISA, keratinocyte differentiation (Example 4); format: cell-based, human; conditions: used alone; Table 4
Protocol: (§1) Human keratinocytes, isolated from neonatal foreskin by trypsin treatment were grown in Dulbecco Modification Eagle (DME) Hams F12 (1:1) medium/10% fetal calf serum in the presence of irradiated 3T3 mouse fibroblasts for establishing dividing keratinocyte colonies. Cells were grown under the above condition until their second passage and kept frozen for future use. Frozen second passage keratinocytes were thawed and plated into the above medium and grown for five days before they were switched to a serum-free MCDB 153-based medium keratinocyte growth medium (KGM) from Clonetics Corporation, San Diego, Calif., containing 0.15 mM Ca, or keratinocyte serum-free media (KSFM) from GIBCO containing 0.09 mM Ca). On day 7, when the cells were 80-90% confluent, they were trypsinized and plated in the serum-free medium for the various experiments.
During the process of terminal differentiation in the epidermis, a 15 nm thick layer of protein, known as the cornified envelope (CE) is formed on the inner surface of the cell periphery. The CE is composed of numerous distinct proteins which have been cross-linked together by the formation of N ^ε -(γ-glutamyl) lysine isodipeptide bonds catalyzed by the action of at least two different transglutaminases (TGases) expressed in the epidermis. TGase 1 is expressed in abundance in the differentiated layers of the epidermis, especially the granular layer, but is absent in the undifferentiated basal epidermis. […]
(§2) Keratinocytes (cultured as described above) were plated in 96 well plates at a density of 3,000 cells per well in 2000 μl of cell culture media. […] The absorbance of samples was read at 492 nm in the plate reader. […] Transglutaminase I levels were determined by subtracted background from the readings from each treatment and determining the mean s.d. for the replicates exposed to both antibodies.
(§3) The level of TGase-1 detected after treatment of the cells could be influenced by cell number, i.e., the greater the number of cells the greater the level of TGase-1 detected. […]

[3] = test system: ARAT; test: In vitro microsomal esterification of retinol, ARAT catalyzed (retinyl palmitate formation); conditions: Table 2, 1 hour, 37° C.
Protocol: (§4) A solution containing 0.1M sodium phosphate pH 7 buffer, 5 mM dithiothreitol, 2 mg/ml bovine serum albumin, 40 micromolar palmitoyl CoA, 40 micromolar dilauroyl phosphatidyl choline, 10 micromolar retinol and a test compound or solvent blank, was incubated for 1 hour at 37° C. with a microsomal fraction isolated from bovine retinal pigment epithelial cells. After incubation, the reaction was quenched by addition of an equal volume of ethanol, and the retinyl esters formed (retinyl palmitate from the ARAT catalyzed reaction, and retinyl laurate from the LRAT catalyzed reaction) were extracted with hexane.

[4] = test system: keratinocyte differentiation (TGase 1); test: Transglutaminase (TGase 1) ELISA normalized to DNA, keratinocyte differentiation (Example 1B); format: cell-based, human; conditions: […]10^-7 to […]10^-9 M; vs ethanol control
Protocol: as §1, with “experiments. […]” for “experiments.”
as §2, with “200” for “2000”, “μl” for “μl of cell culture”, “TGase” for “Transglutaminase I”, “subtracting” for “subtracted”, “mean±s.d.” for “the mean s.d.”, “Ab.” for “antibodies.”
as §3

[5] = molecular target: T1, LRAT (Bos taurus, UniProt Q9BGL2); test: In vitro microsomal esterification of retinol, LRAT catalyzed (retinyl laurate formation); format: biochemical, bovine; conditions: Table 2, 1 hour, 37° C.
T1 construct: microsomal fraction isolated from bovine retinal pigment epithelial cells; from tissue; host or cells: microsomes of bovine retinal pigment epithelial cells (method cited: Saari and Bredberg, J. Biol. Chem. 1988)
T1 sequence (Q9BGL2 1-230): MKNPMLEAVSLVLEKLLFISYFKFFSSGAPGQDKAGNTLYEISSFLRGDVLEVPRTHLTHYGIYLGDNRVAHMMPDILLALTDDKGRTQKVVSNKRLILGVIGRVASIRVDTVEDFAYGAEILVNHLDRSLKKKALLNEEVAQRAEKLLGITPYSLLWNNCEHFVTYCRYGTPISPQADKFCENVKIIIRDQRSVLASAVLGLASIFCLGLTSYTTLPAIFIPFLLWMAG
Protocol: as §4

| SMILES | keratinocyte differentiation (in words) [2] | % INHIB. ARAT ([3]; 100 μM) [%] | further results |
| --- | --- | --- | --- |
| CC1=C(/C=C/C(C)=C/C=C/C(C)=C/C(=O)O)C(C)(C)CCC1 [RA, retinoic acid] | substantially decreased keratinocyte differentiation |  | keratinocyte proliferation (in words) [1]: significantly increased keratinocyte proliferation over both the ethanol control and each of the 2.5×10^-7 M, 2.5×10^-8 M and 2.5×10^-9 M retinol treatments and they did so in a dose dependant manner |
| CCCCCCCCCCCCCCCC(=O)OC/C=C(C)/C=C/C=C(C)/C=C/C1=C(C)CCCC1(C)C [RP, retinyl palmitate] | did not affect keratinocyte differentiation when used alone |  |  |
| O=c1cc[nH]c(=O)[nH]1 [uracil] |  | 0 |  |
| Cc1ncc(C[n+]2csc(CCO)c2C)c(N)n1 [thiamine] |  | 0 |  |
| CC1=C(/C=C/C(C)=C/C=C/C(C)=C/CO)C(C)(C)CCC1 [ROH, retinol] | did not affect keratinocyte differentiation when used alone |  | keratinocyte differentiation / transglutaminase level (in words) [4]: The decrease in transglutaminase level was dose dependent |
| O=C1C(N(CO)C(=O)NCO)N(CO)C(=O)N1CO (stereo not shown) [diazolidinyl urea] |  |  | % INHIB. LRAT ([5]; 0 μM as printed): 0%; % INHIB. ARAT ([3]; 0 μM as printed): 0% |
| CCCCCCCCCCCC(=O)N(C)CC(=O)O [lauroyl sarcosine] |  | 20 |  |
| CCCCCCCC/C=C\CCCCCCCC(=O)NCCC[N+](C)(C)CC(=O)[O-] [oleamidopropyl betaine] |  |  | % INHIB. LRAT ([5]; 100 μM): 0% |
| N[C@@H](Cc1c[nH]c2ccccc12)C(=O)O [tryptophan] |  | 0 |  |
| Nc1ncnc2nc[nH]c12 [adenine] |  | 0 |  |
